Results taken from article PMC6018746, “Activation of the p53-MDM4 regulatory axis defines the anti-tumour response to PRMT5 inhibition through its role in regulating cellular splicing” (Scientific Reports, 2018).
Like-named read-outs stand apart in the source and are kept apart here.

System: panel of hematologic and solid cancer lines
Experiment: 6-day in vitro growth/death assay
Format: cell-based, human
Conditions: read-out: gIC50
Procedure: To further develop these molecules and to guide clinical strategy, it was necessary to understand sensitivity in preclinical models by assessing the anti-tumour activity of the PRMT5 inhibitors in various cancers.
Cell lines were obtained from ATCC or DSMZ and were grown in recommended medium, which was most frequently RPMI-1640 containing 10% FBS. Cell line proliferation assays, Western blotting, qRT-PCR, and cell cycle analyses were performed as described previously[27],[28]. Antibody and gene expression reagents are as described in Supplementary Table 16. All studies were conducted in accordance with the GSK Policy on the Care, Welfare and Treatment of Laboratory Animals and were reviewed by the Institutional Animal Care and Use Committee either at GSK or by the ethical review process at the institution where the work was performed. Detailed descriptions of all methods can be found in the Supplemental Materials.

O=C(NC[C@H](O)CN1CCc2ccccc2C1)c1ccnc(NC2CCC2)c1 [GSK3203591]
IC50 5637: 143 nM | IC50 (A172): 590 nM | IC50 (BJAB): 3100 nM | IC50 (DOHH-2): 116 nM | IC50 (HCC70): 522 nM | IC50 (HCC1143): 509 nM | IC50 (HCC1806): 261 nM | IC50 (Homo sapiens, 1A2, 1A2): 333 nM | IC50 (Homo sapiens, 22Rv1, 22Rv1): 23500 nM | IC50 (Homo sapiens, 639-V): 731 nM | IC50 (Homo sapiens, 647-V): 426 nM | IC50 (Homo sapiens, 769-P): > 29300 nM | IC50 (Homo sapiens, 5637): 143 nM | IC50 (Homo sapiens, A 172, A172): 590 nM | IC50 (Homo sapiens, A204, A204): > 29000 nM | IC50 (Homo sapiens, A498, A498): 435 nM | IC50 (Homo sapiens, A549, A549): 837 nM | IC50 (Homo sapiens, A-375, A-375): 647 nM | IC50 (Homo sapiens, A-427, A427): 276 nM | IC50 (Homo sapiens, AML-193): 1400 nM | IC50 (Homo sapiens, AMO1, AMO-1): 337 nM | IC50 (Homo sapiens, ARH-77, ARH-77): 238 nM | IC50 (Homo sapiens, ASPC1, ASPC1): 424 nM | IC50 (Homo sapiens, BC-3C): 408 nM | IC50 (Homo sapiens, BFTC-905, BFTC-905): 440 nM | IC50 (Homo sapiens, BJAB): 3100 nM | IC50 (Homo sapiens, BT-20, BT-20): 8160 nM | IC50 (Homo sapiens, BT-474, BT-474): 5740 nM | IC50 (Homo sapiens, BT-549, BT549): 17800 nM | IC50 (Homo sapiens, CA46, CA-46): 580 nM | IC50 (Homo sapiens, CAKI-1, Caki-1): 578 nM | IC50 (Homo sapiens, CAL-29): 817 nM | IC50 (Homo sapiens, CAL-51, CAL-51): 2300 nM | IC50 (Homo sapiens, CAL-85-1, CAL-85-1): 1740 nM | IC50 (Homo sapiens, CAMA-1, CAMA-1): 7330 nM | IC50 (Homo sapiens, CAPAN-1, CAPAN1): 1110 nM | IC50 (Homo sapiens, CHP-212, CHP-212): 16.3 nM | IC50 (Homo sapiens, COLO 201, Colo 201): 661 nM | IC50 (Homo sapiens, COLO 205, Colo 205): 694 nM | IC50 (Homo sapiens, COLO 320DM, COLO-320DM): 2350 nM | IC50 (Homo sapiens, COLO-320-HSR, Colo 320 HSR): 2220 nM | IC50 (Homo sapiens, COLO-741, COLO-741): 2910 nM | IC50 (Homo sapiens, COR-L23, COR-L23): 786 nM | IC50 (Homo sapiens, COR-L105, COR-L105): > 29300 nM | IC50 (Homo sapiens, Caco-2, CaCo-2): 740 nM | IC50 (Homo sapiens, Calu-1, Calu1): > 29300 nM | IC50 (Homo sapiens, Calu-6, Calu6): 1280 nM | IC50 (Homo sapiens, Capan-2, CAPAN2): 1060 nM | IC50 (Homo sapiens, ChaGo-K-1, Cha-Go-K1): 2820 nM | IC50 (Homo sapiens, DB): 346 nM | IC50 (Homo sapiens, DBTRG-05MG, DBTRG05MG): > 29300 nM | IC50 (Homo sapiens, DLD-1, DLD-1): 2430 nM | IC50 (Homo sapiens, DMS-114, DMS114): 9170 nM | IC50 (Homo sapiens, DMS-273, DMS273): 262 nM | IC50 (Homo sapiens, DOHH-2, DOHH-2): 116 nM | IC50 (Homo sapiens, DU-145, DU145): 3720 nM | IC50 (Homo sapiens, DU-4475, DU-4475): 1010 nM | IC50 (Homo sapiens, EBC-1, EBC-1): 239 nM | IC50 (Homo sapiens, EFM-19, EFM-19): 162 nM | IC50 (Homo sapiens, F-36P): 1880 nM | IC50 (Homo sapiens, G-361, G-361): 4360 nM | IC50 (Homo sapiens, G-401, G-401): 189 nM | IC50 (Homo sapiens, GDM-1, GDM-1): 42.3 nM | IC50 (Homo sapiens, GF-D8): 33200 nM | IC50 (Homo sapiens, HCC38, HCC38): 127 nM | IC50 (Homo sapiens, HCC70, HCC70): 522 nM | IC50 (Homo sapiens, HCC827, HCC827): 21000 nM | IC50 (Homo sapiens, HCC1143, HCC1143): 509 nM | IC50 (Homo sapiens, HCC1395, HCC1395): 14700 nM | IC50 (Homo sapiens, HCC1569, HCC1569): 11300 nM | IC50 (Homo sapiens, HCC1806, HCC1806): 261 nM | IC50 (Homo sapiens, HCC1937, HCC1937): 956 nM | IC50 (Homo sapiens, HCC2935, HCC2935): 21600 nM | IC50 (Homo sapiens, HCC4006, HCC4006): 170 nM | IC50 (Homo sapiens, HCT-15, HCT-15): 1250 nM | IC50 (Homo sapiens, HCT-116, HCT-116): 10000 nM | IC50 (Homo sapiens, HD-MY-Z): 143 nM | IC50 (Homo sapiens, HEL 92.1.7, HEL 92.1.7): 12400 nM | IC50 (Homo sapiens, HL-60, HL60): 4270 nM | IC50 (Homo sapiens, HOS): > 29000 nM | IC50 (Homo sapiens, HPAC): 901 nM | IC50 (Homo sapiens, HPAF-II, HPAFII): 957 nM | IC50 (Homo sapiens, HT115, HT115): 1740 nM | IC50 (Homo sapiens, HT-29, HT-29): 1810 nM | IC50 (Homo sapiens, HT-144, HT-144): 1050 nM | IC50 (Homo sapiens, HT-1376, HT-1376): 13100 nM | IC50 (Homo sapiens, HT): 272 nM | IC50 (Homo sapiens, Hs 445, Hs445): 976 nM | IC50 (Homo sapiens, Hs766T): 1970 nM | IC50 (Homo sapiens, Hs-578T, Hs578t): 18200 nM | IC50 (Homo sapiens, HuNS1, Huns1): 887 nM | IC50 (Homo sapiens, HuP-T3, HuP-T3): 3390 nM | IC50 (Homo sapiens, HuP-T4, HuP-T4): 190 nM | IC50 (Homo sapiens, HuT78, HuT78): 103 nM | IC50 (Homo sapiens, IGR-1, IGR-1): 8760 nM | IC50 (Homo sapiens, IGROV-1, IGROV-1): 189 nM | IC50 (Homo sapiens, J82, J82): 20900 nM | IC50 (Homo sapiens, JJN-3, JJN3): 164 nM | IC50 (Homo sapiens, JM1, JM1): 75.8 nM | IC50 (Homo sapiens, JMSU-1, JMSU-1): 583 nM | IC50 (Homo sapiens, JVM-2, JVM-2): 172 nM | IC50 (Homo sapiens, JY): 95.1 nM | IC50 (Homo sapiens, JeKo-1, JeKo-1): 6190 nM | IC50 (Homo sapiens, K562, K562): 310 nM | IC50 (Homo sapiens, KMS-11, KMS-11): 46.8 nM | IC50 (Homo sapiens, KMS-12-BM): 190 nM | IC50 (Homo sapiens, KO52): 513 nM | IC50 (Homo sapiens, KP-3): 99.9 nM | IC50 (Homo sapiens, KP-4, KP-4): 20800 nM | IC50 (Homo sapiens, KPL-1, KPL-1): 4110 nM | IC50 (Homo sapiens, KS-1): 85.5 nM | IC50 (Homo sapiens, KU-19-19, KU-19-19): 1110 nM | IC50 (Homo sapiens, Kasumi 1, KASUMI-1): 13200 nM | IC50 (Homo sapiens, L-363, L363): 65.7 nM | IC50 (Homo sapiens, L-428, L-428): 665 nM | IC50 (Homo sapiens, LC-1sq): 7590 nM | IC50 (Homo sapiens, LK-2, LK2): 89.9 nM | IC50 (Homo sapiens, LN-18, LN-18): 9680 nM | IC50 (Homo sapiens, LN-229, LN-229): 1150 nM | IC50 (Homo sapiens, LNCaP): 18900 nM | IC50 (Homo sapiens, LP-1, LP1): 975 nM | IC50 (Homo sapiens, LS-411N, Ls411N): 442 nM | IC50 (Homo sapiens, LoVo): 494 nM | IC50 (Homo sapiens, Lu-65, LU65): 463 nM | IC50 (Homo sapiens, Lu-99, LU-99): 5300 nM | IC50 (Homo sapiens, M059J): 18900 nM | IC50 (Homo sapiens, M059K): 7890 nM | IC50 (Homo sapiens, MC116, MC116): 82 nM | IC50 (Homo sapiens, MC/CAR): 2740 nM | IC50 (Homo sapiens, MCF7, MCF-7): 215 nM | IC50 (Homo sapiens, MDA-MB-157, MDA-MB-157): 3250 nM | IC50 (Homo sapiens, MDA-MB-231, MDA-MB-231): 2930 nM | IC50 (Homo sapiens, MDA-MB-435S): 2220 nM | IC50 (Homo sapiens, MDA-MB-436, MDA-MB-436): 7130 nM | IC50 (Homo sapiens, MDA-MB-453, MDA-MB-453): 343 nM | IC50 (Homo sapiens, MDA-MB-468, MDA-MB-468): 585 nM | IC50 (Homo sapiens, ME-1, ME1): 2450 nM | IC50 (Homo sapiens, MEL-HO): 1550 nM | IC50 (Homo sapiens, MEL-JUSO): 79.3 nM | IC50 (Homo sapiens, MHH-PREB-1, MHH-PREB-1): 3300 nM | IC50 (Homo sapiens, MIA PaCa-2, Miapaca-2): 263 nM | IC50 (Homo sapiens, MINO): 536 nM | IC50 (Homo sapiens, ML-2, ML-2): 115 nM | IC50 (Homo sapiens, MOLM16, MOLM-16): 31000 nM | IC50 (Homo sapiens, MOLM-13, MOLM-13): 86.2 nM | IC50 (Homo sapiens, MOLP-2, MOLP-2): 22100 nM | IC50 (Homo sapiens, MONO-MAC-6, MonoMac6): 196 nM | IC50 (Homo sapiens, MV4-11, MV-4-11): 94.7 nM | IC50 (Homo sapiens, Maver1, MAVER-1): 133 nM | IC50 (Homo sapiens, NALM-6, NALM-6): 1060 nM | IC50 (Homo sapiens, NB-4, NB-4): 80.9 nM | IC50 (Homo sapiens, NCI-H146, NCI-H146): 411 nM | IC50 (Homo sapiens, NCI-H292, NCI-H292): 1340 nM | IC50 (Homo sapiens, NCI-H322, NCI-H322): 1700 nM | IC50 (Homo sapiens, NCI-H441, NCI-H441): 22400 nM | IC50 (Homo sapiens, NCI-H520, NCI-H520): 26.1 nM | IC50 (Homo sapiens, NCI-H522, NCI-H522): > 29300 nM | IC50 (Homo sapiens, NCI-H526, NCI-H526): 138 nM | IC50 (Homo sapiens, NCI-H526-R): 219 nM | IC50 (Homo sapiens, NCI-H647, NCI-H647): 2530 nM | IC50 (Homo sapiens, NCI-H661, NCI-H661): 30800 nM
